Measurements published in patent publication US6258790A, “Antisense modulation of integrin α4 expression” (Isis Pharmaceuticals, Inc., priority 1999, dated 2001).

Key:
human integrin α4 [1] = assay: Inhibition of human integrin α4 protein levels by antisense oligonucleotides (LIPOFECTIN, flow cytometry with CD49d-FITC) in A375 melanoma cells; type: cell-based; settings: Table 24; A375 cells; lipofectin; as Example 8
human integrin α4 [2] = assay: Integrin α4 protein expression in A375 cells after electroporation of oligonucleotide (flow cytometry); type: cell-based; settings: 24 hours
Experimental: A375 cells were treated with ISIS 107245, 107248, 107252, 107255 and 107259 by electroporation at 175 volts, r=1, c=1000, 0.2 ml Opti-MEM, 1×10^6 cells /ml, 2 mm gap electrode using a BTX Electro Cell Manipulator 600 (Genetronics, San Diego Calif.). Oligonucleotide concentrations were 1, 3, 10 and 30 μM. Cells were harvested 24 hours after oligonucleotide treatment and strained with 2 ug/ml CD49d-FITC for flow cytometry as in the previous examples.
ISIS 107248 was compared directly to ISIS 27104 for ability to inhibit integrin α4 expression in A375 melanoma cells. Oligonucleotides were electroporated into cells as in the previous example.

murine integrin α4 mRNA [3] = assay: Antisense inhibition of murine integrin α4 mRNA expression in P388D (IL-1) macrophage cells (RNA gel, PCR-labeled probe); type: cell-based, mouse; settings: 100 nM; for % Control (murine integrin α4 mRNA) / % Inhib (murine integrin α4 mRNA): Table 8, P388D (IL-1) cells, 3 ug/ml lipofectin
Experimental: Oligonucleotides were initially screened in murine P388D (IL-1) macrophage cells (American Type Culture Collection, Manassas Va.) for 4 hours at an oligonucleotide concentration of 100 nM in 3 ug/ml lipofectin.

murine integrin α4 = assay: Antisense inhibition of murine integrin α4 protein expression in IC-21 macrophage cells (flow cytometry, CD49d-PE); type: cell-based, mouse; settings: for % Control: Table 16; for % Control (integrin α4 protein) / % Inhib (integrin α4 protein): Table 11, IC-21 cells, 25 nM, triplicates
Experimental: Murine IC-21 macrophage cells (American Type Culture Collection, Manassas, Va.) were used for further study. Additional oligonucleotides were designed to target murine integrin α4. These are shown in Table 10; all 2' MOE nucleotides are shown in bold and remaining positions are 2' deoxy. All 2'-MOE cytosines in these compounds are 5' methylcytosines. IC-21 cells were seeded at 5×10^4 cell/well plates two days before assay. […] Wells were triplicates.
Cells (triplicates) were seeded at 2.5×10^4 cells/well in 24-well plates the day before treatment. Oligonucleotide concentrations were 0.2, 1, 5, 25 and 50 nM in 3 ug/ml LIPOFECTIN. Cells were harvested with 2 mM EDTA for 4 minutes, then 1 ml of 2% BSA, 0.2% azide was added per contents of each well.
IC-21 cells were treated with 0.3, 1, 3, 10 and 30 nM oligonucleotide with 3 ug/ml LIPOFECTIN for 4 hours. Cells were incubated for 24 hours, harvested with trypsin, stained with 2 ug/ml CD49d-PE and rat IgG2B as in previous examples.
These compounds were tested for ability to inhibit integrin α4 protein expression.

murine integrin α4 mRNA [4] = assay: Antisense inhibition of murine integrin α4 mRNA expression in P388D (IL-1) macrophage cells (RNA gel, PCR-labeled probe); type: cell-based, mouse; settings: Table 9, averages of duplicate samples
[5] = Table 9, averages of duplicate samples

107255 (antisense AAGTCTAAGACTTCTCCAGT; chemistry not given here) [compound 107255]
% Control (human integrin α4 [1]): 36%
% Control (human integrin α4 [2]; Table 25, 1 nM as printed): 50.6%
% Control (human integrin α4 [2]; Table 25, 10 nM): 22.9%
% Control (human integrin α4 [2]; Table 25, 30 nM): 19.4%

15604 (antisense GGAGCGATCGTAGTGGCCAG; phosphorothioate DNA, further chemistry not given here) [compound 15604]
% Control (murine integrin α4 mRNA) (murine integrin α4 mRNA [3]): 134%

107245 (antisense GTTGATATAACTCCAACTGT; chemistry not given here) [compound 107245]
% Control (human integrin α4 [1]): 35%
% Control (human integrin α4 [2]; Table 25, 1 nM as printed): 27.1%
% Control (human integrin α4 [2]; Table 25, 10 nM): 64.4%
% Control (human integrin α4 [2]; Table 25, 30 nM): 30.3%

15606 (antisense GATGAAGTGCAGCAGCGTGT; phosphorothioate DNA, further chemistry not given here) [compound 15606]
% Control (murine integrin α4 mRNA) (murine integrin α4 mRNA [3]): 72%
% Inhib (murine integrin α4 mRNA) (murine integrin α4 mRNA [3]): 28%

107252 (antisense AAGAGTAATCATTGCTGAGA; chemistry not given here) [compound 107252]
% Control (human integrin α4 [1]): 35%
% Control (human integrin α4 [2]; Table 25, 1 nM as printed): 17.4%
% Control (human integrin α4 [2]; Table 25, 10 nM): 7.9%
% Control (human integrin α4 [2]; Table 25, 30 nM): 2.9%

17048 (GCCGACACCCGTTCGTTCGG; phosphorothioate, 2'-modified, further chemistry not given here) [compound 17048]
% Control (murine integrin α4; 0.3 nM): 159%
% Control (murine integrin α4; 1 nM): 159%
% Control (murine integrin α4; 3 nM): 150%
% Control (murine integrin α4; 10 nM): 119%

15607 (antisense GGCCACTGACCAGAGTTGCA; phosphorothioate DNA, further chemistry not given here) [compound 15607]
% Control (integrin α4 protein) (murine integrin α4): 82%
% Inhib (integrin α4 protein) (murine integrin α4): 18%
% Control (murine integrin α4 mRNA [4]; 12.5 nM): 78%
% Inhib. (murine integrin α4 mRNA [4]; 12.5 nM): 22%
% Control (murine integrin α4 mRNA [4]; 25 nM): 67%
% Inhib. (murine integrin α4 mRNA [4]; 25 nM): 33%
% Control (murine integrin α4 mRNA [4]; 50 nM): 50%
% Inhib. (murine integrin α4 mRNA [4]; 50 nM): 50%
% Control (murine integrin α4 mRNA) (murine integrin α4 mRNA [3]): 26%
% Inhib (murine integrin α4 mRNA) (murine integrin α4 mRNA [3]): 74%
activity in the mRNA screen (murine integrin α4 mRNA [3]; Table 8 assay): most active
% Control (murine integrin α4 mRNA [3]; [5]): 55%
% Inhib. (murine integrin α4 mRNA [3]; [5]): 45%

16429 (antisense GGCCACTGACCAGAGTTGCA; phosphorothioate, 2'-MOE/deoxy gapmer, further chemistry not given here) [compound 16429]
% Control (integrin α4 protein) (murine integrin α4): 60%
% Inhib (integrin α4 protein) (murine integrin α4): 40%

15600 (antisense CACGCCCCGTTTCTGTGGCC; phosphorothioate, 2'-MOE, further chemistry not given here) [compound 15600]
% Control (murine integrin α4 mRNA) (murine integrin α4 mRNA [3]): 93%
% Inhib (murine integrin α4 mRNA) (murine integrin α4 mRNA [3]): 07%
